Results reported in PubChem BioAssay (NCI).
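1) Cells in 96-well plates. 2) Compound, 48 h, 5 concentrations. 3) Linear interpolation between surrounding doses. 4) Unreached endpoint = highest concentration. Here, GI50 denotes the concentration required for 50% inhibition of growth. TGI: concentration producing complete growth inhibition.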

How the values were obtained:
Assay in all cases: DTP human tumour cell line panel, 48 h
MCF7 breast = system: MCF7 breast
UACC-257 melanoma = system: UACC-257 melanoma
UO-31 renal = system: UO-31 renal
SNB-75 CNS = system: SNB-75 CNS
OVCAR-3 ovarian = system: OVCAR-3 ovarian
K-562 leukemia = system: K-562 leukemia
CCRF-CEM leukemia = system: CCRF-CEM leukemia
CAKI-1 renal = system: CAKI-1 renal
SK-MEL-2 melanoma = system: SK-MEL-2 melanoma
SW-620 colon = system: SW-620 colon
HL-60(TB) leukemia = system: HL-60(TB) leukemia
MALME-3M melanoma = system: MALME-3M melanoma
HCT-116 colon = system: HCT-116 colon
SF-295 CNS = system: SF-295 CNS
M14 melanoma = system: M14 melanoma
NCI/ADR-RES ovarian = system: NCI/ADR-RES ovarian
T-47D breast = system: T-47D breast
SNB-19 CNS = system: SNB-19 CNS
A498 renal = system: A498 renal
NCI-H460 lung = system: NCI-H460 lung
NCI-H23 lung = system: NCI-H23 lung
SR leukemia = system: SR leukemia
HS 578T breast = system: HS 578T breast
RXF 393 renal = system: RXF 393 renal
EKVX NSCLC = system: EKVX NSCLC
COLO 205 colon = system: COLO 205 colon
SK-MEL-5 melanoma = system: SK-MEL-5 melanoma
MDA-MB-468 breast = system: MDA-MB-468 breast
SK-MEL-28 melanoma = system: SK-MEL-28 melanoma
SK-OV-3 ovarian = system: SK-OV-3 ovarian
HOP-62 NSCLC = system: HOP-62 NSCLC
TK-10 renal = system: TK-10 renal
SF-268 CNS = system: SF-268 CNS
SF-539 CNS = system: SF-539 CNS
HT29 colon = system: HT29 colon
MDA-MB-231 breast = system: MDA-MB-231 breast
OVCAR-4 ovarian = system: OVCAR-4 ovarian
ACHN renal = system: ACHN renal
HCT-15 colon = system: HCT-15 colon
OVCAR-8 ovarian = system: OVCAR-8 ovarian
NCI-H522 lung = system: NCI-H522 lung
HCC-2998 colon = system: HCC-2998 colon
DU-145 prostate = system: DU-145 prostate
UACC-62 melanoma = system: UACC-62 melanoma
HOP-92 NSCLC = system: HOP-92 NSCLC
BT-549 breast = system: BT-549 breast
PC-3 prostate = system: PC-3 prostate
A549 NSCLC = system: A549 NSCLC
786-0 renal = system: 786-0 renal
SN12C renal = system: SN12C renal
RPMI-8226 leukemia = system: RPMI-8226 leukemia
MOLT-4 leukemia = system: MOLT-4 leukemia
U251 CNS = system: U251 CNS
IGROV1 ovarian = system: IGROV1 ovarian
NCI-H226 lung = system: NCI-H226 lung
OVCAR-5 ovarian = system: OVCAR-5 ovarian

O=C(Nc1ccc(OCC(=O)c2ccccc2)cc1)Nc1ccc(Cl)c(C(F)(F)F)c1
GI50 (MCF7 breast): 3.37 µM | TGI (MCF7 breast): > 100 µM | GI50 (UACC-257 melanoma): 3.78 µM | TGI (UACC-257 melanoma): > 100 µM | GI50 (UO-31 renal): 3.18 µM | TGI (UO-31 renal): > 100 µM | GI50 (SNB-75 CNS): 2.27 µM | TGI (SNB-75 CNS): 19.9 µM | GI50 (OVCAR-3 ovarian): 2.76 µM | TGI (OVCAR-3 ovarian): > 100 µM | GI50 (K-562 leukemia): 3.66 µM | TGI (K-562 leukemia): > 100 µM | GI50 (CCRF-CEM leukemia): 3.54 µM | TGI (CCRF-CEM leukemia): > 100 µM | GI50 (CAKI-1 renal): 3.31 µM | TGI (CAKI-1 renal): > 100 µM | GI50 (SK-MEL-2 melanoma): 2.07 µM | TGI (SK-MEL-2 melanoma): 4.8 µM | GI50 (SW-620 colon): 3.74 µM | TGI (SW-620 colon): > 100 µM | GI50 (HL-60(TB) leukemia): 3 µM | TGI (HL-60(TB) leukemia): 40.2 µM | GI50 (MALME-3M melanoma): 3.11 µM | TGI (MALME-3M melanoma): > 100 µM | GI50 (HCT-116 colon): 3.69 µM | TGI (HCT-116 colon): > 100 µM | GI50 (SF-295 CNS): 2.74 µM | TGI (SF-295 CNS): 13.5 µM | GI50 (M14 melanoma): 2.97 µM | TGI (M14 melanoma): > 100 µM | GI50 (NCI/ADR-RES ovarian): 3.45 µM | TGI (NCI/ADR-RES ovarian): > 100 µM | GI50 (T-47D breast): 3.13 µM | TGI (T-47D breast): > 100 µM | GI50 (SNB-19 CNS): 3.16 µM | TGI (SNB-19 CNS): > 100 µM | GI50 (A498 renal): 3.59 µM | TGI (A498 renal): 18.2 µM | GI50 (NCI-H460 lung): 3.07 µM | TGI (NCI-H460 lung): > 100 µM | GI50 (NCI-H23 lung): 3.28 µM | TGI (NCI-H23 lung): 48.9 µM | GI50 (SR leukemia): 2.52 µM | TGI (SR leukemia): > 100 µM | GI50 (HS 578T breast): 3.51 µM | TGI (HS 578T breast): 31.1 µM | GI50 (RXF 393 renal): 2.78 µM | TGI (RXF 393 renal): 14.3 µM | GI50 (EKVX NSCLC): 3.26 µM | TGI (EKVX NSCLC): > 100 µM | GI50 (COLO 205 colon): 4.32 µM | TGI (COLO 205 colon): > 100 µM | GI50 (SK-MEL-5 melanoma): 2.87 µM | TGI (SK-MEL-5 melanoma): 9.54 µM | GI50 (MDA-MB-468 breast): 2.41 µM | TGI (MDA-MB-468 breast): 7.05 µM | GI50 (SK-MEL-28 melanoma): 2.97 µM | TGI (SK-MEL-28 melanoma): 25.8 µM | GI50 (SK-OV-3 ovarian): 8.74 µM | TGI (SK-OV-3 ovarian): 60.7 µM | GI50 (HOP-62 NSCLC): 5.76 µM | TGI (HOP-62 NSCLC): 35.2 µM | GI50 (TK-10 renal): 6.25 µM | TGI (TK-10 renal): 40.3 µM | GI50 (SF-268 CNS): 3.51 µM | TGI (SF-268 CNS): > 100 µM | GI50 (SF-539 CNS): 3.28 µM | TGI (SF-539 CNS): 12.8 µM | GI50 (HT29 colon): 3.34 µM | TGI (HT29 colon): > 100 µM | GI50 (MDA-MB-231 breast): 2.87 µM | TGI (MDA-MB-231 breast): 11.4 µM | GI50 (OVCAR-4 ovarian): 4.39 µM | TGI (OVCAR-4 ovarian): > 100 µM | GI50 (ACHN renal): 3.17 µM | TGI (ACHN renal): > 100 µM | GI50 (HCT-15 colon): 2.92 µM | TGI (HCT-15 colon): > 100 µM | GI50 (OVCAR-8 ovarian): 4.31 µM | TGI (OVCAR-8 ovarian): > 100 µM | GI50 (NCI-H522 lung): 1.96 µM | TGI (NCI-H522 lung): 6.15 µM | GI50 (HCC-2998 colon): 3.37 µM | TGI (HCC-2998 colon): > 100 µM | GI50 (DU-145 prostate): 6.81 µM | TGI (DU-145 prostate): > 100 µM | GI50 (UACC-62 melanoma): 2.26 µM | TGI (UACC-62 melanoma): 6.2 µM | GI50 (HOP-92 NSCLC): 3.48 µM | TGI (HOP-92 NSCLC): 17.5 µM | GI50 (BT-549 breast): 11.5 µM | TGI (BT-549 breast): > 100 µM | GI50 (PC-3 prostate): 2.83 µM | TGI (PC-3 prostate): > 100 µM | GI50 (A549 NSCLC): 3.64 µM | TGI (A549 NSCLC): > 100 µM | GI50 (786-0 renal): 4.12 µM | TGI (786-0 renal): 32.5 µM | GI50 (SN12C renal): 3.18 µM | TGI (SN12C renal): > 100 µM | GI50 (RPMI-8226 leukemia): 3.51 µM | TGI (RPMI-8226 leukemia): > 100 µM | GI50 (MOLT-4 leukemia): 2.48 µM | TGI (MOLT-4 leukemia): > 100 µM | GI50 (U251 CNS): 2.95 µM | TGI (U251 CNS): 12.8 µM | GI50 (IGROV1 ovarian): 4.38 µM | TGI (IGROV1 ovarian): > 100 µM | GI50 (NCI-H226 lung): 3.73 µM | TGI (NCI-H226 lung): > 100 µM | GI50 (OVCAR-5 ovarian): 5.28 µM | TGI (OVCAR-5 ovarian): > 100 µM
